Measured values from PMC9820167, “Design and Synthesis of Conformationally Flexible Scaffold as Bitopic Ligands for Potent D3-Selective Antagonists” (International Journal of Molecular Sciences, 2022).

Experiments:
Assay in all cases: PDSP binding screen
[1] = target: Serotonin 5-HT6 (Homo sapiens, UniProt P50406)
[2] = target: Dopamine active transporter (DAT) (Homo sapiens, UniProt Q01959)
[3] = target: Histamine H3 (Homo sapiens, UniProt Q9Y5N1)
[4] = target: T1, Adrenergic alpha2C (Homo sapiens, UniProt P18825)
T1 sequence (P18825 1-462): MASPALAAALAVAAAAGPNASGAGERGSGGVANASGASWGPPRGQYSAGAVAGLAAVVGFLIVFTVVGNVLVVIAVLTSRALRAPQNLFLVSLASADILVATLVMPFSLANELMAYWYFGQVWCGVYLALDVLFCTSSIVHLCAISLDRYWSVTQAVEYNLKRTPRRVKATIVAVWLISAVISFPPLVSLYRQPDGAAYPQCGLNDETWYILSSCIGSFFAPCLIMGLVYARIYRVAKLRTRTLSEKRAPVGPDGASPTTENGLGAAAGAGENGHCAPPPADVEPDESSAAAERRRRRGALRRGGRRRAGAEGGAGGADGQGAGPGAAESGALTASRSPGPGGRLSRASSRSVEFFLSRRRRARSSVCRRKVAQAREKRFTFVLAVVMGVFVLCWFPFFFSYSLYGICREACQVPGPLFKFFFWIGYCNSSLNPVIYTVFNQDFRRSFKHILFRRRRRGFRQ

[5] = target: T2, Adrenergic alpha2A (Homo sapiens, UniProt P08913)
T2 sequence (P08913 1-465): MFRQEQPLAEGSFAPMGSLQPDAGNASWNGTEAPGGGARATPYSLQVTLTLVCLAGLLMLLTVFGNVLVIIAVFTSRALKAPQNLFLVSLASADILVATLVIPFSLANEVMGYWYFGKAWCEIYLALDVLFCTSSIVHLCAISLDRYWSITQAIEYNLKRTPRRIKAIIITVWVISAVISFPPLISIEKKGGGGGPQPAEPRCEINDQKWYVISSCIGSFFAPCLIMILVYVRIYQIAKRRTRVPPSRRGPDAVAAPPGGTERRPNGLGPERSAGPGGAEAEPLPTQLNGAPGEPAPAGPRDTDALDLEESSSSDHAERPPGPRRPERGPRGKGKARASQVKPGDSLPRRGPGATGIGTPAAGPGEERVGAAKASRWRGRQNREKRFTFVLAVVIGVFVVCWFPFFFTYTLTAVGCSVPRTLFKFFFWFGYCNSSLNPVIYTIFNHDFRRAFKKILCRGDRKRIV

[6] = target: Benzodiazepine receptor (PBR) (Rattus norvegicus, UniProt P16257)
[7] = target: Histamine H2 (Homo sapiens, UniProt P25021)
Histamine H2, sequence (P25021 whole entry): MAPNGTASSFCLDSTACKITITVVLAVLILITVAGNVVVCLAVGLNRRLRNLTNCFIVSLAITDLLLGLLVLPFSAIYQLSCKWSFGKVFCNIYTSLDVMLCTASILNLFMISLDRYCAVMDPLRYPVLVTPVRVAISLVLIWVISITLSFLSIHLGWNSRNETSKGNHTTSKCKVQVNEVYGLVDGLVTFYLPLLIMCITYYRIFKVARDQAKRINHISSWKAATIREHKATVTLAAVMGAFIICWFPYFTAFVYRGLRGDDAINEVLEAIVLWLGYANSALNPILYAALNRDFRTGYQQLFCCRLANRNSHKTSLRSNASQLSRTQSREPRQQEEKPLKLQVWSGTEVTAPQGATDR

[8] = target: T3, Adrenergic alpha1B (Homo sapiens, UniProt P35368)
T3 sequence (P35368 1-520): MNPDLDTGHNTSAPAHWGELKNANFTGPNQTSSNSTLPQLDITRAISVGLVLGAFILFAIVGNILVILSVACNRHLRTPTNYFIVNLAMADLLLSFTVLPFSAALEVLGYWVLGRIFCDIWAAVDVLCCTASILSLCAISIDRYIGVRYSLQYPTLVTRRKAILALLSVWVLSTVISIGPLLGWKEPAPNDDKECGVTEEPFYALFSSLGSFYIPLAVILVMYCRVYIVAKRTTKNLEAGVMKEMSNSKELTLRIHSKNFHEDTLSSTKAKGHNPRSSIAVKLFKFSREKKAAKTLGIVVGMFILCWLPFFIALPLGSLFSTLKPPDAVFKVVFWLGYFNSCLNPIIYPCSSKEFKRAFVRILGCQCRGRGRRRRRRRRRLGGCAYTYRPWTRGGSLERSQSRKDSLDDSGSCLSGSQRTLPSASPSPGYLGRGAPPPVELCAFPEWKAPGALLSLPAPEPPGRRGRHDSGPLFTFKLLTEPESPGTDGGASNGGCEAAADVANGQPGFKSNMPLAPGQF

[9] = target: Adrenergic beta3 (Homo sapiens, UniProt P13945)
Adrenergic beta3, sequence (P13945 whole entry): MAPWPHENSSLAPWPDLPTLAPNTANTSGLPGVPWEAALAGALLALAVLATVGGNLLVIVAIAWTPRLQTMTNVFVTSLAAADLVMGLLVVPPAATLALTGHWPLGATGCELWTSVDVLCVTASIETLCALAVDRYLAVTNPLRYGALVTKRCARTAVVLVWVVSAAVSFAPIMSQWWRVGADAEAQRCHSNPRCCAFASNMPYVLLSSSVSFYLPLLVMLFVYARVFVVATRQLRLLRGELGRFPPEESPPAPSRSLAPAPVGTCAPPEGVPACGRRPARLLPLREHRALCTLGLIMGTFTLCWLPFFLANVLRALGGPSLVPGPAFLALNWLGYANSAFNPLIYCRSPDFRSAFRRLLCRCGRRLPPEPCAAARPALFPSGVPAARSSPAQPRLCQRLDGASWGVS

[10] = target: T4, Adrenergic alpha2B (Homo sapiens, UniProt P18089)
T4 sequence (P18089 1-450): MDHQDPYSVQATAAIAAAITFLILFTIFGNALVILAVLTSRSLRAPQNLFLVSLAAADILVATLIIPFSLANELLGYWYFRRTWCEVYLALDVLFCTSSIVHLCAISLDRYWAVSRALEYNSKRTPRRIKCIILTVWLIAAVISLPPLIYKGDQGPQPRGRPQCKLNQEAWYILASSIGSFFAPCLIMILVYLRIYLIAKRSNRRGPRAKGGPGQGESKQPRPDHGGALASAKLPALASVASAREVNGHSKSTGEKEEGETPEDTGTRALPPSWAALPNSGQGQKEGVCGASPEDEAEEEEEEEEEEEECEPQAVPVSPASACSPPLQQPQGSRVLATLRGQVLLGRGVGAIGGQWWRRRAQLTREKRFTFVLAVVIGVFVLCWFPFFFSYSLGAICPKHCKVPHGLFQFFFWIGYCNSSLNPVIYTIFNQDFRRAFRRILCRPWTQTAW

[11] = target: Adrenergic beta2 (Homo sapiens, UniProt P07550)
Adrenergic beta2, sequence (P07550 whole entry): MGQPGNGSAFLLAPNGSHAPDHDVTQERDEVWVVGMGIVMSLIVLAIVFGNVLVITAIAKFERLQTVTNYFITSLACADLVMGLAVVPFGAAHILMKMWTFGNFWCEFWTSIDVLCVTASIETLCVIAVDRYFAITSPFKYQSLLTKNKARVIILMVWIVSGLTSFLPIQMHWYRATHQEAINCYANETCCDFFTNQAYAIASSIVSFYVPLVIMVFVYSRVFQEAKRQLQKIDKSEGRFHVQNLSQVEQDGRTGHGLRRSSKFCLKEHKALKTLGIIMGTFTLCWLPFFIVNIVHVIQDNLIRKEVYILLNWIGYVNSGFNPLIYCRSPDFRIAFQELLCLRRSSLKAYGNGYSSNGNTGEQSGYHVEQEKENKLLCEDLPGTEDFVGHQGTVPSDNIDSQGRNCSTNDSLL

[12] = target: GABAA; settings: HCl salts

Dopamine active transporter (DAT), sequence (Q01959 whole entry, species assumed): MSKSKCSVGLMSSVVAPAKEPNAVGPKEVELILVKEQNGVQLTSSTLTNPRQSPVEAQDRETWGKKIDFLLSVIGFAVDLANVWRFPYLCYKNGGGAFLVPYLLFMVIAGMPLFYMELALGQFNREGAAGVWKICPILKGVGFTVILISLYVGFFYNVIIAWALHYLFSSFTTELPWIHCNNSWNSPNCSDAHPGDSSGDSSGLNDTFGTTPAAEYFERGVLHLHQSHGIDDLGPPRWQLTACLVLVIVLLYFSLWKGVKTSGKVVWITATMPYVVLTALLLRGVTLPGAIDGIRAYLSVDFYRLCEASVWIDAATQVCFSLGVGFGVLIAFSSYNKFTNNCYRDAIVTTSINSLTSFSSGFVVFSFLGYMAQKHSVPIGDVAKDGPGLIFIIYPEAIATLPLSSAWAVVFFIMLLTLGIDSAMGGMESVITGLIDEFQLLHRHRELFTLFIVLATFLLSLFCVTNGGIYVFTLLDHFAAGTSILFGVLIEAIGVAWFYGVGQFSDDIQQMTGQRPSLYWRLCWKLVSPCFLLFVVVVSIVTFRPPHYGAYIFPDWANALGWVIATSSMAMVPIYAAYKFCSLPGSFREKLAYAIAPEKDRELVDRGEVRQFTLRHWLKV
Serotonin 5-HT6, sequence (P50406 whole entry): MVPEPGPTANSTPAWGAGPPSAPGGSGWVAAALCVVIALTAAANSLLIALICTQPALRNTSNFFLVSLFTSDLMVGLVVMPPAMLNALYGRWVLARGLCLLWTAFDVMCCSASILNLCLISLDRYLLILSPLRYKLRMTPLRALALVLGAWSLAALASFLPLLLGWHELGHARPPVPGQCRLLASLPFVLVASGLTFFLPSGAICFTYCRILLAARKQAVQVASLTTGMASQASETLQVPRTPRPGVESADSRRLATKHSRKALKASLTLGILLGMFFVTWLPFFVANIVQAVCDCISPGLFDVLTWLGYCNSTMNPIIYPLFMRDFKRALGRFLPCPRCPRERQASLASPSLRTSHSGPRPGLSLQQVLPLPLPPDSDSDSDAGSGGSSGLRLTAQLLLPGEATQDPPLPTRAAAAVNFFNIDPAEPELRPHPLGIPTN
Histamine H3, sequence (Q9Y5N1 whole entry): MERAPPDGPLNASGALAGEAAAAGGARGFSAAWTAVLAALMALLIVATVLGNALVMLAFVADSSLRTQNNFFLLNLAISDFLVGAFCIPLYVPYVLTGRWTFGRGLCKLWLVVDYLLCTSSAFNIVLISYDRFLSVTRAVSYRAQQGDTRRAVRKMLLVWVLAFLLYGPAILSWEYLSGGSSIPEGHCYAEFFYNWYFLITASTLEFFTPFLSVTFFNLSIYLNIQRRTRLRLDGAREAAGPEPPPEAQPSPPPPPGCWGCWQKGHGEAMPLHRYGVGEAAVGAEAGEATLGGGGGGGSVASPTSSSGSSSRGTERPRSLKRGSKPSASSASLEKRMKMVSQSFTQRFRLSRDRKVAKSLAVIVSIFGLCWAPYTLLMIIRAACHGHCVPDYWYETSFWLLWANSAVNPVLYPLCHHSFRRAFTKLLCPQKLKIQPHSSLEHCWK

`CCN(CCCNC(=O)c1ccc(-c2cccs2)cc1)CCNC(=O)c1cc(Br)cc(OC)c1OC` [9a, 5-Bromo-N-(2-(ethyl(3-(4-(thiophen-2-yl)benzamido)propyl)amino)ethyl)-2,3-dimethoxybenzamide] gave a Ki [1] of 287 nM, a Ki [2] of 87 nM and a Ki [3] of 5.58 µM. It also gave a Ki [4] of 313 nM, a Ki [5] of 1350 nM and a Ki [6] of 1450 nM. The Ki [7] was 2610 nM, the Ki [8] was 2190 nM and the Ki [9] was 1500 nM. The Ki [10] was 235 nM, the Ki [11] was 669 nM and the “Ki (nM) or % inhibition at 10 µM: GABAA” value [12] was “N/A (N/A; not active means less than 50% inhibition that was obtained in primary binding assay at 10 µM of the compound)”.
